Among the test systems are HL-60(TB) leukemia; HOP-62 NSCLC; SR leukemia; TK-10 renal; CAKI-1 renal; LOX IMVI melanoma; NCI-H23 lung; DU-145 prostate; A549 NSCLC; ACHN renal; HCT-116 colon; HS 578T breast; NCI-H522 lung; COLO 205 colon; MOLT-4 leukemia; SF-295 CNS; SF-268 CNS; A498 renal; K-562 leukemia; NCI-H226 lung.
Common to all, as to experiment: DTP human tumour cell line panel, 48 h

SMILES strings stand for the structures.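 A five-concentration, 48-hour dose response in 96-well plates underlies each endpoint, interpolated linearly between surrounding concentrations. TGI: concentration producing complete growth inhibition.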 A value given as a limit tells only on which side of the number the result lay.

By TGI is commonly meant the concentration at which net growth stops. Lower therefore signals more potent growth arrest.

Regarding `CCOC(=O)C1C(c2ccc(OC)cc2)c2c([nH]n(-c3ccccc3)c2=O)CC1(O)OCC` (configuration not stated), the TGI in the test with HL-60(TB) leukemia was 15 µM; in the test with HOP-62 NSCLC it was > 100 µM; in the test with SR leukemia, > 100 µM; with TK-10 renal, > 100 µM; in the test with CAKI-1 renal, > 100 µM; in the test on LOX IMVI melanoma, > 100 µM. Further, the TGI in the test with NCI-H23 lung, in the test on DU-145 prostate, in the test with A549 NSCLC, with ACHN renal, in the test with HCT-116 colon and with HS 578T breast was > 100 µM throughout. Besides, the TGI in the test on NCI-H522 lung was > 100 µM; in the test with COLO 205 colon it was > 100 µM; with MOLT-4 leukemia, 14 µM; in the test on SF-295 CNS it was > 100 µM; in the test on SF-268 CNS, > 100 µM; in the test with A498 renal, > 100 µM.
For `Cc1ccc(S(=O)(=O)n2c3c(c4ccccc42)CCN2C(=O)C(S(=O)(=O)c4ccccc4)=CCC32)cc1` (configuration not stated), the TGI in the test on HL-60(TB) leukemia was found to be 0.468 µM; with HOP-62 NSCLC, 0.562 µM; in the test with SR leukemia, 0.635 µM; in the test on TK-10 renal it was 0.282 µM; in the test with CAKI-1 renal, 0.872 µM; in the test with LOX IMVI melanoma it was 0.452 µM. Besides, the TGI in the test on NCI-H23 lung stood at 0.335 µM; with K-562 leukemia, 0.673 µM; with DU-145 prostate, 0.375 µM; with A549 NSCLC it was 2.77 µM; in the test on ACHN renal, 0.393 µM; with HS 578T breast it was 9.15 µM. In addition, the TGI in the test on NCI-H522 lung stood at 0.567 µM; in the test with COLO 205 colon it was 0.458 µM; in the test on SF-295 CNS it was 3.49 µM; with A498 renal, 0.582 µM.
Turning to `C1=Nc2ccc(cc2)N=Cc2ccc(cc2)OCc2cccc(n2)COc2ccc1cc2`, the TGI in the test with HL-60(TB) leukemia, with HOP-62 NSCLC, in the test with SR leukemia, with CAKI-1 renal, in the test with NCI-H23 lung and in the test with K-562 leukemia was > 100 µM in each case. The TGI with NCI-H226 lung, with DU-145 prostate, in the test with A549 NSCLC, in the test with ACHN renal, in the test on HCT-116 colon and with HS 578T breast was > 100 µM in each case. Also, the TGI in the test with NCI-H522 lung, in the test with COLO 205 colon, in the test with MOLT-4 leukemia, in the test on SF-295 CNS, with SF-268 CNS and with A498 renal was > 100 µM each time.
As for `O=S(=O)(O)CCCC1S(=O)(=O)OCCOS1(=O)=O`, the TGI in the test with HL-60(TB) leukemia, with HOP-62 NSCLC, in the test with SR leukemia, with TK-10 renal, in the test on CAKI-1 renal and in the test on LOX IMVI melanoma was > 100 µM each time. Moreover, the TGI in the test on NCI-H23 lung, with NCI-H226 lung, in the test with DU-145 prostate, with ACHN renal, in the test on HCT-116 colon and in the test with HS 578T breast was > 100 µM in each case. Moreover, the TGI in the test with NCI-H522 lung, in the test on COLO 205 colon, in the test on SF-295 CNS, in the test with SF-268 CNS and in the test on A498 renal was > 100 µM throughout.
As to `Cn1c(N)c(C(N)=O)[nH]c1=S`, the TGI in the test on HL-60(TB) leukemia, in the test on HOP-62 NSCLC, with SR leukemia, in the test on TK-10 renal, in the test on LOX IMVI melanoma and in the test on NCI-H23 lung was > 100 µM throughout. Also, the TGI in the test with K-562 leukemia, in the test on NCI-H226 lung, in the test with DU-145 prostate, with A549 NSCLC, in the test with ACHN renal and in the test on HS 578T breast was > 100 µM each time. In addition, the TGI in the test on NCI-H522 lung, in the test on COLO 205 colon, in the test on MOLT-4 leukemia, in the test with SF-295 CNS, in the test with SF-268 CNS and with A498 renal was > 100 µM in each case.
As for `CCCN1CC=C(c2cc(C(=O)OCC)[nH]c2-c2cc(C)no2)C1=O`, the TGI in the test with HL-60(TB) leukemia, with HOP-62 NSCLC, in the test on SR leukemia, with CAKI-1 renal, in the test on LOX IMVI melanoma and in the test on NCI-H23 lung was > 100 µM each time. In addition, the TGI with K-562 leukemia, with NCI-H226 lung, in the test with DU-145 prostate, with A549 NSCLC, with HCT-116 colon and in the test on HS 578T breast was > 100 µM in each case. Also, the TGI in the test on COLO 205 colon, in the test on MOLT-4 leukemia, with SF-295 CNS, in the test on SF-268 CNS and with A498 renal was > 100 µM throughout.
In the case of `O=C1Cc2c([nH]c3c(Cl)cccc23)-c2ccccc2N1`, the TGI with HL-60(TB) leukemia, in the test on HOP-62 NSCLC, in the test with SR leukemia, with TK-10 renal, in the test on LOX IMVI melanoma and with NCI-H23 lung was > 100 µM each time. Besides, the TGI with K-562 leukemia, in the test on NCI-H226 lung, in the test with DU-145 prostate, in the test with A549 NSCLC, with ACHN renal and in the test on HCT-116 colon was > 100 µM each time. In addition, the TGI in the test on HS 578T breast, in the test with NCI-H522 lung, with COLO 205 colon, in the test with MOLT-4 leukemia, in the test on SF-295 CNS and in the test with SF-268 CNS was > 100 µM each time. Also, the total growth inhibition concentration (TGI) in the test with A498 renal was > 100 µM.
Take `COc1cc(-c2cc(=O)c3c(OC)c(OC)c(OC)cc3o2)c(OC)c(OC)c1OC`: the TGI was 44 µM in the test with HL-60(TB) leukemia; > 75 µM with HOP-62 NSCLC; > 75 µM in the test on SR leukemia; > 75 µM in the test on TK-10 renal; > 75 µM in the test with CAKI-1 renal; > 75 µM with LOX IMVI melanoma. The TGI in the test with NCI-H23 lung, in the test with K-562 leukemia, with NCI-H226 lung, in the test with DU-145 prostate, with A549 NSCLC and with ACHN renal was > 75 µM each time. For the same molecule, the TGI in the test with HCT-116 colon, in the test on HS 578T breast, in the test on NCI-H522 lung, with COLO 205 colon, with MOLT-4 leukemia and in the test on SF-295 CNS was > 75 µM each time. The TGI with SF-268 CNS was > 75 µM.

(Values after PubChem BioAssay (NCI).)
